ChEMBL document CHEMBL2413076, “Synthesis and biological evaluation of ursolic acid-triazolyl derivatives as potential anti-cancer agents” (Eur J Med Chem, 2013)

Columns and labels:
[1] = system: MCF7; test: Growth inhibition of human MCF7 cells assessed as dead cells at 50 uM after 48 hrs by sulforhodamine-B assay relative to control; assay type: functional; settings: MCF7, 48 h, read-out: GI
[2] = system: HCT-116; test: Growth inhibition of human HCT116 cells assessed as dead cells at 50 uM after 48 hrs by sulforhodamine-B assay relative to control; assay type: functional; settings: HCT-116, 48 h, read-out: GI
[3] = system: THP-1; test: Growth inhibition of human THP1 cells after 48 hrs by sulforhodamine-B assay; assay type: functional, cell-based; settings: THP-1, 48 h
[4] = Growth inhibition of human FR2 cells assessed as dead cells at 10 uM after 48 hrs by sulforhodamine-B assay relative to control; assay type: cell-based; settings: read-out: GI
[5] = system: THP-1; test: Growth inhibition of human THP1 cells assessed as dead cells at 50 uM after 48 hrs by sulforhodamine-B assay relative to control; assay type: functional; settings: THP-1, 48 h, read-out: GI
[6] = system: MCF7; test: Growth inhibition of human MCF7 cells assessed as dead cells at 10 uM after 48 hrs by sulforhodamine-B assay relative to control; assay type: functional; settings: MCF7, 48 h, read-out: GI
[7] = Growth inhibition of human FR2 cells assessed as dead cells at 50 uM after 48 hrs by sulforhodamine-B assay relative to control; assay type: cell-based; settings: read-out: GI
[8] = system: HCT-116; test: Growth inhibition of human HCT116 cells after 48 hrs by sulforhodamine-B assay; assay type: functional, cell-based; settings: HCT-116, 48 h
[9] = system: HCT-116; test: Growth inhibition of human HCT116 cells assessed as dead cells at 10 uM after 48 hrs by sulforhodamine-B assay relative to control; assay type: functional; settings: HCT-116, 48 h, read-out: GI
[10] = Growth inhibition of human FR2 cells after 48 hrs by sulforhodamine-B assay; assay type: cell-based; settings: FR2, 48 h
[11] = system: THP-1; test: Growth inhibition of human THP1 cells assessed as dead cells at 10 uM after 48 hrs by sulforhodamine-B assay relative to control; assay type: functional; settings: THP-1, 48 h, read-out: GI
[12] = system: A549; test: Growth inhibition of human A549 cells assessed as dead cells at 50 uM after 48 hrs by sulforhodamine-B assay relative to control; assay type: functional; settings: A549, 48 h, read-out: GI
[13] = system: A549; test: Growth inhibition of human A549 cells assessed as dead cells at 10 uM after 48 hrs by sulforhodamine-B assay relative to control; assay type: functional; settings: A549, 48 h, read-out: GI
[14] = system: MCF7; test: Growth inhibition of human MCF7 cells after 48 hrs by sulforhodamine-B assay; assay type: functional, cell-based; settings: MCF7, 48 h
[15] = system: A549; test: Growth inhibition of human A549 cells after 48 hrs by sulforhodamine-B assay; assay type: functional, cell-based; settings: A549, 48 h

SMILES | inhibition of growth at 50 µM [1] | inhibition of growth at 50 µM [2] | IC50 [3] | inhibition at 48 h, 10 µM [4] | inhibition of growth at 50 µM [5] | inhibition of growth at 10 µM [6] | inhibition at 48 h, 50 µM [7] | IC50 [8] | inhibition of growth at 10 µM [9] | IC50 [10] | inhibition of growth at 10 µM [11] | inhibition of growth at 50 µM [12] | inhibition of growth at 10 µM [13] | IC50 [14] | IC50 [15]
C[C@H]1[C@H](C)CC[C@]2(C(=O)OCc3cn(-c4ccccc4Br)nn3)CC[C@]3(C)C(=CC[C@@H]4[C@@]5(C)CCC(=O)C(C)(C)[C@@H]5CC[C@]43C)[C@H]12 | 99% | 99% | < 0.1 µM | 2% | 99% | 80% | 99% | 15 µM | 41% | 69 µM | 92% | 99% | 85% | < 0.1 µM | 2.9 µM
C[C@H]1[C@H](C)CC[C@]2(C(=O)OCc3cn(-c4ccccc4[N+](=O)[O-])nn3)CC[C@]3(C)C(=CC[C@@H]4[C@@]5(C)CCC(=O)C(C)(C)[C@@H]5CC[C@]43C)[C@H]12 | 42% | 65% | 48 µM | 9% | 54% | 4% | 12% | 14 µM | 45% | > 50 µM | 24% | 39% | 3% | > 50 µM | > 50 µM
C[C@H]1[C@H](C)CC[C@]2(C(=O)OCc3cn(-c4ccccc4Cl)nn3)CC[C@]3(C)C(=CC[C@@H]4[C@@]5(C)CCC(=O)C(C)(C)[C@@H]5CC[C@]43C)[C@H]12 | 95% | 93% | < 0.1 µM | 9% | 96% | 81% | 35% | 9.1 µM | 54% | > 50 µM | 80% | 91% | 77% | < 0.1 µM | 0.15 µM
C[C@H]1[C@H](C)CC[C@]2(C(=O)OCc3cn(-c4ccc(Br)cc4)nn3)CC[C@]3(C)C(=CC[C@@H]4[C@@]5(C)CCC(=O)C(C)(C)[C@@H]5CC[C@]43C)[C@H]12 | 78% | 92% | 1 µM | 58% | 95% | 44% | 93% | 1.7 µM | 80% | 19 µM | 74% | 63% | 45% | 15 µM | 18 µM
C[C@H]1[C@H](C)CC[C@]2(C(=O)O)CC[C@]3(C)C(=CC[C@@H]4[C@@]5(C)CC[C@H](O)C(C)(C)[C@@H]5CC[C@]43C)[C@H]12 [URSOLIC ACID] | 57% | 53% | 9.1 µM | 31% | 84% | 36% | 66% | 42 µM | 55% | 31 µM | 31% | 61% | 28% | 37 µM | 33 µM
C[C@H]1[C@H](C)CC[C@]2(C(=O)OCc3cn(-c4ccc(F)cc4F)nn3)CC[C@]3(C)C(=CC[C@@H]4[C@@]5(C)CCC(=O)C(C)(C)[C@@H]5CC[C@]43C)[C@H]12 | 73% | 91% | 1.1 µM | 2% | 86% | 17% | 78% | 0.47 µM | 69% | 44 µM | 82% | 64% | 57% | 30 µM | 6.4 µM
C[C@H]1[C@H](C)CC[C@]2(C(=O)OCc3cn(-c4ccccc4F)nn3)CC[C@]3(C)C(=CC[C@@H]4[C@@]5(C)CCC(=O)C(C)(C)[C@@H]5CC[C@]43C)[C@H]12 | 15% | 12% |  |  | 49% |  |  |  |  |  |  | 18% |  |  | 
C[C@H]1[C@H](C)CC[C@]2(C(=O)OCc3cn(-c4ccc(C(F)(F)F)cc4)nn3)CC[C@]3(C)C(=CC[C@@H]4[C@@]5(C)CCC(=O)C(C)(C)[C@@H]5CC[C@]43C)[C@H]12 | 3% | 16% |  |  | 27% |  |  |  |  |  |  | 30% |  |  | 
C[C@H]1[C@H](C)CC[C@]2(C(=O)OCc3cn(-c4ccc(Cl)cc4)nn3)CC[C@]3(C)C(=CC[C@@H]4[C@@]5(C)CCC(=O)C(C)(C)[C@@H]5CC[C@]43C)[C@H]12 | 52% | 49% |  |  | 9% |  |  |  |  |  |  | 26% |  |  | 
C[C@H]1[C@H](C)CC[C@]2(C(=O)OCc3cn(-c4cccc(Br)c4)nn3)CC[C@]3(C)C(=CC[C@@H]4[C@@]5(C)CCC(=O)C(C)(C)[C@@H]5CC[C@]43C)[C@H]12 | 3% | 10% |  |  | 32% |  |  |  |  |  |  | 16% |  |  | 
C[C@H]1[C@H](C)CC[C@]2(C(=O)OCc3cn(-c4cccc5ccccc45)nn3)CC[C@]3(C)C(=CC[C@@H]4[C@@]5(C)CCC(=O)C(C)(C)[C@@H]5CC[C@]43C)[C@H]12 | 80% | 76% |  |  | 75% | 40% |  |  | 2% |  | 47% | 50% | 27% |  | 
C[C@H]1[C@H](C)CC[C@]2(C(=O)OCc3cn(-c4ccccc4C(F)(F)F)nn3)CC[C@]3(C)C(=CC[C@@H]4[C@@]5(C)CCC(=O)C(C)(C)[C@@H]5CC[C@]43C)[C@H]12 | 4% | 23% |  |  | 73% |  |  |  |  |  |  | 46% |  |  | 
C[C@H]1[C@H](C)CC[C@]2(C(=O)OCc3cn(-c4ccc(F)cc4)nn3)CC[C@]3(C)C(=CC[C@@H]4[C@@]5(C)CCC(=O)C(C)(C)[C@@H]5CC[C@]43C)[C@H]12 | 4% | 3% |  |  | 2% |  |  |  |  |  |  | 3% |  |  | 
C[C@H]1[C@H](C)CC[C@]2(C(=O)OCc3cn(-c4ccc(I)cc4)nn3)CC[C@]3(C)C(=CC[C@@H]4[C@@]5(C)CCC(=O)C(C)(C)[C@@H]5CC[C@]43C)[C@H]12 | 82% | 8% |  |  | 1% |  |  |  |  |  |  | 2% |  |  | 
